This is an account of results in ChEMBL document CHEMBL1124887, “Antiinflammatory agents. 4. Syntheses and biological evaluation of potential prodrugs of 2-amino-3-benzoylbenzeneacetic acid and 2-amino-3-(4-chlorobenzoyl)benzeneacetic acid” (J Med Chem, 1990).

Structures are written as SMILES. pIC50: −log10 of the molar value. The source made the active and inactive calls. The calls are words filed in the database; no cut-off is given here.

The species entered for data set [1] is Rattus norvegicus. As to the kind of experiment: Pharmacological potency relative to indomethacin for prodrug candidate by adjuvant-induced arthritis assay. The data set is classed as functional.
The species entered for data set [2] is Rattus norvegicus. As to the kind of experiment: (§1) Potency in adjuvant-induced arthritis assay/ potency in intestinal toxicity assay. Format: functional.
Another data set addresses T1, Cyclooxygenase (Rattus norvegicus, UniProt P35355+Q63921).
T1 sequence (P35355 whole entry): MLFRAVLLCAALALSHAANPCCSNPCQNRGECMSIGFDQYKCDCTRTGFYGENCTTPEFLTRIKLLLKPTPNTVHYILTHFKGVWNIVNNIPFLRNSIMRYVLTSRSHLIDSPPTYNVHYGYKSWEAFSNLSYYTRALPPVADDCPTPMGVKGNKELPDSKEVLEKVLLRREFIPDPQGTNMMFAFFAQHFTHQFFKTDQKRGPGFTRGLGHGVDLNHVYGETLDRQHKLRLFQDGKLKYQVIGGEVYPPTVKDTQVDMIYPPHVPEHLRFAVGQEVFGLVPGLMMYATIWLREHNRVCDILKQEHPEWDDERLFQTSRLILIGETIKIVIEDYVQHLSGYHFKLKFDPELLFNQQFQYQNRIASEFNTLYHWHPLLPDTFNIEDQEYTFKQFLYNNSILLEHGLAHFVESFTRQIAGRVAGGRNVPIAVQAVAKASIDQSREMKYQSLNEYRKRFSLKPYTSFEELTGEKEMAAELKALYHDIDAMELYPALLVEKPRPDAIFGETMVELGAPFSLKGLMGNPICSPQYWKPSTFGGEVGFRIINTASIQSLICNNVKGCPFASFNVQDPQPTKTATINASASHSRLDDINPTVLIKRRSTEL
T1 sequence (Q63921 whole entry): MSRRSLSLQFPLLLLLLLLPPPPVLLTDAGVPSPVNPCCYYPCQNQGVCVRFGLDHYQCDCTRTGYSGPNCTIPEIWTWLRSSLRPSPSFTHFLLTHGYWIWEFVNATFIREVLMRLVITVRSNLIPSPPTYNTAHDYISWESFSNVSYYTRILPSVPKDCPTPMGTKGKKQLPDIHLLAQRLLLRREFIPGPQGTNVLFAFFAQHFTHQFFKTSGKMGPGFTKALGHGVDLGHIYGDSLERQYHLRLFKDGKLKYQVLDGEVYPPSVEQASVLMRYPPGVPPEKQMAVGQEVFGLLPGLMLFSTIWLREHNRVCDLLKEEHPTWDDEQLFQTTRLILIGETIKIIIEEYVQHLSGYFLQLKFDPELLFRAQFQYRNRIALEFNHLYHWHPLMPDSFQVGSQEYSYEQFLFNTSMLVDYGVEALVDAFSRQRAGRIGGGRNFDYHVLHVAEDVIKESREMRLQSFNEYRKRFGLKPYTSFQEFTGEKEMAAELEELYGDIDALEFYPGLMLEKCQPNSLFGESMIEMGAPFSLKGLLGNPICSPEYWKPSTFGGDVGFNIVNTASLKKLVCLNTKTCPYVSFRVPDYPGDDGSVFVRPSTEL

The nature of data set [3]: Antiinflammatory activity was tested in Pleural effusion rate assay and the percent change in average volume of pleural fluid at the dose of 316 mg/kg; Inactive.
The target of data set [4] is Prostaglandin G/H synthase 1 (Ovis aries) (UniProt P05979). As to the kind of experiment: Inhibitory activity against Prostaglandin G/H synthase.
Data set [5] can be described thus: as §1. Conditions: read-out: Therapeutic index.
The test system of data set [6] is Rattus norvegicus. Nature of the data set: Antiinflammatory activity was tested in Pleural effusion rate assay for and the percent change in average volume of pleural fluid at the dose of 4.0 mg/kg. The data set is classed as functional.
For data set [7], the species on record is Rattus norvegicus. Nature of the data set: potency in adjuvant-induced arthritis assay/ potency in intestinal toxicity assay. The data set is classed as functional.

For the compound `Nc1c(CC(=O)[O-])cccc1C(=O)C1CCCCC1.[Na+]`, in the data set filed under Rattus norvegicus [1], the Potency stood at 0.004.

In the case of `CCOC(=O)Cc1cccc(C(=O)c2ccc(Cl)cc2)c1N`, the Potency in the data set listed under Rattus norvegicus [1] was 1. In the data set filed under Rattus norvegicus [2], the Therapeutic index is 1.7. The same compound showed an IC50 at Cyclooxygenase of 73 µM.

As for `CCOC(=O)Cc1cccc(C(=O)c2ccccc2)c1N`, the Potency in the data set listed under Rattus norvegicus [1] amounted to 0.3. Further, the Therapeutic index in the data set listed under Rattus norvegicus [2] came to 0.4. In addition, the IC50 against Cyclooxygenase was 50 µM.

As to `Nc1c(CCO)cccc1C(=O)c1ccc(Cl)cc1`, the Potency in the data set filed under Rattus norvegicus [1] stood at 0.8. In addition, in the data set filed under Rattus norvegicus [2], the Therapeutic index was determined as 3.3. The compound further showed a half-inhibitory concentration (IC50) against Cyclooxygenase of over 1000 µM.

With `NC(=O)Cc1cccc(C(=O)c2ccccc2)c1N`, in the data set filed under Rattus norvegicus [1], the Potency turned out to be 0.09. Moreover, the IC50 against Cyclooxygenase was over 100 µM.

For `Nc1c(CC(=O)[O-])cccc1C(O)c1ccccc1.[Na+]` (stereo unspecified), the Potency in the data set filed under Rattus norvegicus [1] was found to be 0.001. The IC50 on Cyclooxygenase was over 1000 µM.

In the case of `CCOC(=O)Cc1cccc(C(=O)c2ccc(Cl)cc2)c1NC(=O)C(F)(F)F`, the Potency in the data set filed under Rattus norvegicus [1] is on record as 1. In addition, the Therapeutic index in the data set filed under Rattus norvegicus [2] was 3.3. Also, the IC50 against Cyclooxygenase was over 1000 µM.

As to `O=C1Cc2cccc(C(=O)c3ccccc3)c2N1`, the Change entry in data set [3] was “inactive”.

With `COc1ccc2c(c1)c(CC(=O)O)c(C)n2C(=O)c1ccc(Cl)cc1` [INDOMETHACIN], the Potency in the data set listed under Rattus norvegicus [1] is 1.

For the compound `O=C(O)Cc1cccc2c(-c3ccccc3)onc12`, the Potency in the data set listed under Rattus norvegicus [1] is recorded as 0.6. In addition, the Therapeutic index in the data set filed under Rattus norvegicus [2] was found to be 2.5. Further, the IC50 on Cyclooxygenase was over 1000 µM.

`Nc1c(CCO)cccc1C(O)c1ccccc1` (stereo unspecified): the Potency in the data set listed under Rattus norvegicus [1] amounted to 0.005. Moreover, the IC50 on Cyclooxygenase is over 500 µM.

Turning to `Nc1c(C(=O)CCC(=O)O)cccc1C(=O)c1ccccc1`, in the data set filed under Rattus norvegicus [1], the Potency was 0.4. In the data set filed under Rattus norvegicus [2], the Therapeutic index is 2.5. The same compound registered an IC50 against Cyclooxygenase of over 1000 µM.

On to `O=C(O)Cc1cccc(C(=O)c2ccc(Cl)cc2)c1[N+](=O)[O-]`, for which the Potency in the data set filed under Rattus norvegicus [1] was 1.7. The compound also had a pIC50 in data set [4] of under 3.00. Further, the selectivity ratio in data set [5] stood at 3.4. Also, the Change in the data set with Rattus norvegicus [6] was -21%.

For the compound `CN(C)c1c(CC(=O)O)cccc1C(=O)c1ccccc1`, the Potency in the data set filed under Rattus norvegicus [1] was 0.009. For the same compound, the IC50 against Cyclooxygenase is over 1000 µM.

`Nc1c(C(=O)CCC(=O)O)cccc1C(=O)c1ccc(Cl)cc1`: in the data set listed under Rattus norvegicus [1], the Potency is 0.9. Further, the Therapeutic index in the data set listed under Rattus norvegicus [2] stood at 3. In addition, the IC50 against Cyclooxygenase was over 1000 µM.

Consider `Nc1c(CC(=O)[O-])cccc1C(O)c1ccc(Cl)cc1.[Na+]` (stereo unspecified), for which the Potency in the data set filed under Rattus norvegicus [1] amounted to 0.002. At Cyclooxygenase, this compound showed an IC50 of over 1000 µM.

Take `N#CCc1cccc(C(=O)c2ccc(Cl)cc2)c1N`: the Change result in data set [3] is “inactive”.

Regarding `Nc1c(CCO)cccc1C(O)c1ccc(Cl)cc1` (stereo unspecified), in the data set filed under Rattus norvegicus [1], the Potency was 0.05. This compound also registered an IC50 on Cyclooxygenase of over 1000 µM.

As for `CC(=O)c1cccc(C(=O)c2ccccc2)c1N`, the Change result in data set [3] was “inactive”.

Regarding `Nc1c(CCO)cccc1C(=O)c1ccccc1`, the Potency in the data set filed under Rattus norvegicus [1] is on record as 0.05. The same compound yielded an IC50 against Cyclooxygenase of over 100 µM.

As for `O=C1Cc2cccc(C(=O)c3ccc(Cl)cc3)c2N1`, in data set [3], the Change entry is “inactive”.

Take `O=C(O)Cc1cccc(C(=O)c2ccccc2)c1[N+](=O)[O-]`: in the data set filed under Rattus norvegicus [1], the Potency is on record as 0.5. For the same compound, the Therapeutic index in the data set filed under Rattus norvegicus [2] is reported as 5. The compound also showed an IC50 on Cyclooxygenase of over 1000 µM.

Take `Nc1c(CC(=O)[O-])cccc1C(=O)c1ccccc1.[Na+]` [AMFENAC SODIUM]: the Potency in the data set listed under Rattus norvegicus [1] stood at 1.1. Also, in the data set listed under Rattus norvegicus [2], the Therapeutic index is 2.8. The compound also came in with an IC50 at Cyclooxygenase of 0.1 µM.

In the case of `Nc1c(CC(=O)[O-])cccc1C(=O)c1ccc(Cl)cc1.[Na+]`, the Potency in the data set listed under Rattus norvegicus [1] is reported as 2.2. The Therapeutic index in the data set filed under Rattus norvegicus [2] worked out at 1.6. Besides, on Cyclooxygenase, the IC50 amounted to 0.1 µM.

For `NC(=O)Cc1cccc(C(=O)c2ccc(Cl)cc2)c1N`, the Potency in the data set filed under Rattus norvegicus [1] came to 0.8. Moreover, the Therapeutic index in the data set listed under Rattus norvegicus [2] was found to be 10. Besides, the IC50 at Cyclooxygenase is over 1000 µM.

As for `O=C(O)Cc1cccc2c(-c3ccc(Cl)cc3)onc12`, in the data set listed under Rattus norvegicus [1], the Potency was determined as 1. The compound also registered an IC50 against Cyclooxygenase of over 500 µM. In addition, the Therapeutic index in the data set listed under Rattus norvegicus [7] was 1.

With `CC(=O)Nc1c(CC(=O)O)cccc1C(=O)c1ccccc1`, the Change entry in data set [3] is “inactive”.

What is called IC50 is the point on the concentration scale where inhibition reaches its midpoint. A higher IC50 goes with a need for much substance. For orientation: pIC50 means the IC50 on a negative log10 scale, so that one unit is a factor of ten. Lower therefore signals a high IC50.
